In patent US20260364088A1, “TASL MIMICKING MOLECULES AND APPLICATIONS THEREOF” (CEMM - FORSCHUNGSZENTRUM FÜR MOLEKULARE MEDIZIN GMBH, priority 2022, published 2026):
Read-outs that look alike come from different tables or passages of the source.

Key:
[1] = test system: IRF5; assay: IRF5 nuclear translocation in CD19^+ B cells of PBMCs (confocal microscopy); type: cell-based, human; conditions: primary B cells, dTASL1 10 µM 24 h, R848 (5 μg/ml) 3 h, n=7
Description: (§1) PBMCs were treated for 24 h with DMSO or dTASL1 (10 µM) and thereafter stimulated with 5 μg/ml R848 (Invivogen) for three hours or left unstimulated. Cells were harvested and stained for 30 minutes with PE-conjugated anti-CD19 antibodies (BioLegend, #302254, 1:200 in PBS/2% FBS) on ice and fixed with 4% formaldehyde in PBS for 15 minutes at RT. Permeabilization and staining for NF-κB p65 and IRF5 and counterstaining was performed as for CAL-1 and cells were seeded at a concentration of 3×10^4 cells/well onto 384-well imaging plates. Images were acquired on a PerkinElmer Opera Phenix HCS spinning disc confocal microscope and analyzed as described above with the additional identification of B cells based on CD19 membrane staining intensity. This protocol also applies to the cells obtained from SLE patients.
(§2) Given that all evidence obtained seems to confirm the mechanistic precision of this chemical agent, any further consideration of assessing the therapeutic potential required evidence for activity in human primary cells relevant for SLE pathophysiology. The effect of dTASL1 in human peripheral blood mononuclear cells (PBMCs) was assessed. […] It has been previously shown that the SLC15A4-TASL module was required for TNF production in primary human monocytes. […] The impact of dTASL1 on TLR7/8 responses by directly monitoring IRF5 by confocal microscopy in B cells was assessed.

[2] = test system: NF-κB p65; assay: NF-κB p65 nuclear translocation in CD19^+ B cells of PBMCs (confocal microscopy); type: cell-based, human; conditions: primary B cells, dTASL1 10 µM 24 h, R848 (5 μg/ml) 3 h, n=7
Description: as §1, §2

[3] = biological target: ΔN-SLC15A4-GFP (Homo sapiens, UniProt Q8N697); assay: ΔN-SLC15A4-GFP levels and localization in HEK293T cells; type: cell-based; conditions: 10 µM, 24 h
Description: Cells transfected with TASL-V5 plasmid were stained for V5-tag and detected with deep red Alexa Fluor 647 secondary antibody to allow for selection in the presence of an mCherry reporter. Cells were measured either immediately after staining or in the case of live cells immediately after harvesting and washing with PBS. Data were acquired on a BD FACSCalibur (BD Biosciences) and analyzed with FlowJo software (version 10).
For live cell imaging cells were plated in PhenoPlate 96-well plates or Ibidi m-Slide 8 (Ibidi) wells at 16 k/well and incubated over-night. Then compounds were added, if indicated, and cells were imaged after 24 h of incubation. Cells were stained with LysoTracker Deep Red L12492 (ThermoFisher) and Hoechst 34580 (ThermoFisher). […] Images were analyzed with Fiji-ImageJ.
Encouraged by the fact that the chemical entity of the present invention was showing the desired behavior and specificity profile, it became important to better clarify the molecular basis of this uncommon mechanism of action, i.e interference with a highly specific protein interaction leading to degradation of a single complex component. The effect of dTASL1 on complex assembly was first monitored. […]

[4] = biological target: T1, THP1 dual cell (Homo sapiens, UniProt Q8N697); assay: THP1 DUAL/ISRE cell reporter assay (R848 stimulated); type: cell-based
T1 construct: R848 (TLR7/8)-stimulated ISRE reporter
Description: CAL-1, THP1 or human primary cells were incubated with dTASL1 and other identified compounds (or the corresponding volume of DMSO vehicle) for 24 h or 48 h at the indicated concentration and subsequently stimulated with R848 (5 μg/ml) for the indicated time. Supernatant or cells were recovered for ELISA, SDS-PAGE or microscopy-based analysis.
THP1 DUAL cells (1×10^5 cells per 96 well) were incubated with compounds for 24 h or 48 h, and subsequently stimulated for 20 h as indicated. Cell culture supernatant were collected, cleared of residual cells by centrifugation and analyzed for NF-κB and ISRE reporter activity according to the manufacturer's instructions. For experiments in 384-well format, compounds were pre-plated at defined concentrations and THP1 dual cells were added at 800 k/well concentration in […]. After incubation for 24 h or 48 h cells were stimulated with […] of a 25 μg/ml stock of R848 or 0.5 μg/ml Pam3CKS4 5× stocks as indicated for 20 h and detected by directly adding Quanti-Luc Plus (Invivogen) solution to the plates, according to the manufacturer's instructions and without adding stabilizer solution. Quanti-Blue detection was carried out according to the manifacturers instructions, with QB reagent and buffer (Invivogen) dissolved in 30 ml water, instead of the 100 ml used for standard detection.
Based on potency and kinetics, the compound C5 was selected for further characterization (FIG. 2E). C5 is an elongated molecule comprised of an aromatic 2-(4-ethoxyphenyl)-quinoline moiety followed by an amide bond and an aliphatic 2-methyl-1-propylpiperidine (FIG. 2F). To validate the scaffold and explore the chemical space at the aliphatic end of the compound, five analogues and an independently synthesized batch of C5 were obtained. […] Therefore the C5 compound was selected, which was named dTASL1 as its activity leads to TASL degradation, to assess effects on TLR7/8-induced signaling and responses.
The following compounds were assayed for their activity in the degradation assay (THP1 DUAL/ISRE cell reporter assay), as described herein: […]

T1 sequence (Q8N697 whole entry): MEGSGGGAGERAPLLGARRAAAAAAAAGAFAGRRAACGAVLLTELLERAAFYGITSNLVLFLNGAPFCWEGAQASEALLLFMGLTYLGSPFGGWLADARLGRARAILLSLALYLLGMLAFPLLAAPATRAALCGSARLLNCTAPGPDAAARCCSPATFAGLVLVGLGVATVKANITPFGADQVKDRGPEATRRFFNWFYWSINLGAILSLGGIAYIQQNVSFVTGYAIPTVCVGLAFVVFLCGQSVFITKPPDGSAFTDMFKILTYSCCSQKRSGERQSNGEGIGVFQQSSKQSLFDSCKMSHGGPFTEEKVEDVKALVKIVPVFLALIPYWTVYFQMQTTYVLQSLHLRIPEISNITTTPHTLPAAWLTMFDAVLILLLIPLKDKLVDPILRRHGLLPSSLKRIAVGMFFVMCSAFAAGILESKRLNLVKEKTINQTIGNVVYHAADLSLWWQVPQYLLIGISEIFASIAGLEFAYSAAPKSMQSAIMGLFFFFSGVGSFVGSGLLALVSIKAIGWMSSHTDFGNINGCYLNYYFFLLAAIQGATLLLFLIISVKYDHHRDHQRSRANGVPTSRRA
ΔN-SLC15A4-GFP, sequence (Q8N697 whole entry, stated change not applied): as the sequence (Q8N697 whole entry) above

IC50 ([4]; 24 h treatment before R848 stimulation, read-out: IC50 24 h): 2230 nM
IC50 ([4]; 48 h treatment before R848 stimulation, read-out: IC50 48 h): 933 nM
SMILES: CCOc1ccc(-c2cc(C(=O)NCCCN3CCCCC3C)c3ccccc3n2)cc1 (centres unmarked) [dTASL1, 2-(4-ethoxyphenyl)-N-(3-(2-methylpiperidin-1-yl)propyl) quinoline-4-carboxamide]
IRF5 nuclear translocation [1]: significantly reduced IRF5 nuclear translocation
activation of NF-κB p65 [2]: without affecting the activation of NF-κB p65
levels or localization of ΔN-SLC15A4-GFP [3]: did not affect levels or localization of ΔN-SLC15A4-GFP
